# Test results taken from EP4219453A1 (Sichuan Kelun-Biotech Biopharmaceutical Co., Ltd., priority 2020, dated 2022).
# Where “and” joins values, the source holds several entries; their conditions need not be identical. Identical values can stand only once. Like-named read-outs stand apart in the source and are kept apart here.
# Columns and labels:
# CYP2D6 = target: T1, CYP2D6 (Homo sapiens, UniProt P10635); experiment: CYP enzyme inhibition test, P450-Glo CYP2D6 Screening System; format: in vitro ADME; conditions: Luciferin-ME EGE 3 µM
# T1 construct: purchased Promega
# Procedure: (§1) Test Example 5: CYP enzyme (Cytocrome P450) inhibition test
# (§2) • 1. Test system: • P450-Glo™ CYP1A2 Screening System (Promega); • P450-Glo™ CYP2D6 Screening System (Promega); • P450-Glo™ CYP3A4 Screening System (Promega). • 2. Test instrument: BMG PHERAstar FS Luminescent. • 3. Test method: The test was carried out according to the kit instructions, and the steps were as follows: 3.1. Inhibition of CYP1A2:
# (§3) Test group: The test compound of different concentration was added to the microplate, and Luciferin-ME EGE (3 µM), K3PO4 (100 mM) and CYP2D6 (5 nM) were added to each well, and pre-incubated at room temperature for 10 min, followed by an addition of the NADPH regeneration system, and reacted at 37°C for 30 min, an equal volume of detection buffer was added at last, and incubated at room temperature for 20 min, and then chemiluminescence detection was performed.
# (§4) Negative control group: The experimental method was the same as that of the test group, but the test compound was not added.
# Blank control group: The experimental method was the same as that of the test group, but the test compound was not added, and CYP2D6 Membrance (5 nM) was used instead of CYP2D6.
# (§5) The median inhibitory concentration (IC50) or range of the compound was estimated according to the inhibition rate of CYP enzymes at different concentrations: IC50 = X × (1 - percent inhibition rate (%)) / percent inhibition rate (%), wherein X is the test concentration of the compound.
# CYP3A4 = target: T2, CYP3A4 (Homo sapiens, UniProt P08684); experiment: CYP enzyme inhibition test, P450-Glo CYP3A4 Screening System; format: in vitro ADME; conditions: Luciferin-IPA 3 µM
# T2 construct: purchased Promega
# Procedure: as §1, §2
# as §3, with “Luciferin-IPA” for “and Luciferin-ME EGE”, “CYP3A4 (2” for “CYP2D6 (5”, “room temperature” for “37°C”
# as §4
# Blank control group: The experimental method was the same as that of the test group, but the test compound was not added, and CYP3A4 Membrance (2 nM) was used instead of CYP3A4.
# as §5
# [1] = Pharmacokinetics (PK) study in Balb/c mice; format: in vivo; conditions: female Balb/c mice; for F: PO 10 mg/kg compared with IV 1 mg/kg
# Procedure: Test Example 6: Pharmacokinetics (PK) study in Balb/c mice
# The example compounds were administered to female Balb/c mice via intravenous injection (IV) and gastric perfusion (PO), respectively, and their pharmacokinetic properties were investigated. The administered doses for IV and PO were 1 mg/kg and 10 mg/kg, respectively. The solvent for IV was 5% DMSO + 5% Solutol (15-hydroxystearic acid polyethylene glycol ester) + 90% normal saline, the solvent for PO was 0.5% MC ([…] methylcellulose). Whole blood samples were collected at various time points after IV and PO administration, and subjected to EDTA-K2 anticoagulation before test.
# Whole blood samples were processed by precipitating proteins and then subjected to LC-MS/MS analysis. The pharmacokinetic parameters were calculated by the non-compartmental model using WinNonlin 6.3 software, and the results were shown in Table 6 below. Table 6. Pharmacokinetic parameters of compounds in whole blood in mice
# TGFβR2 = TGFβR2 (Homo sapiens, UniProt P37173); experiment: In vitro enzymatic activity inhibition test (TGFβR2), ADP-Glo Kinase Detection Kit; format: biochemical; conditions: MBP substrate, calculated from percent inhibition at 1000nM, 100nM, 10nM
# Procedure: Test Example 2: In vitro enzymatic activity inhibition test (TGFβR2).
# Experimental method: According to the instructions of ADP-Glo™ Kinase Detection Kit (Promega), the inhibitory effect of the compounds of the present invention on the enzymatic activity of TGFβR2 was determined, and the steps were as follows: TGFβR2 enzyme were pre-incubated with different concentrations of test compounds (1000nM, 100nM, 10nM) at 30°C for 30 min, myelin basic protein (MBP) and adenosine triphosphate (ATP) were added to initiate the reaction. The incubation was performed at 30°C for 3 h, followed by an addition of ADP-Glo™ reagent and incubated at room temperature for 90 min, kinase detection reagent was then added. The chemiluminescence signal values were detected after incubation at room temperature for another 30 min.
# When the percent inhibition was between 30% and 80%, the median inhibitory concentration (IC50) or range of the compound was calculated according to the following formula: IC50 = X × (1 - percent inhibition rate (%)) / percent inhibition rate (%), wherein X is the concentration of the compound at which the inhibition rate is between 30% and 80%.
# [2] = PO, 10 mg/kg, whole blood, listed as Example VI
# [3] = mouse, IV, 1 mg/kg, whole blood
# [4] = mouse, IV, 1 mg/kg, whole blood, read-out: Cmax
# [5] = mouse, PO, 10 mg/kg, whole blood
# [6] = mouse, PO, 10 mg/kg, whole blood, read-out: Cmax
# T1 sequence (P10635 whole entry): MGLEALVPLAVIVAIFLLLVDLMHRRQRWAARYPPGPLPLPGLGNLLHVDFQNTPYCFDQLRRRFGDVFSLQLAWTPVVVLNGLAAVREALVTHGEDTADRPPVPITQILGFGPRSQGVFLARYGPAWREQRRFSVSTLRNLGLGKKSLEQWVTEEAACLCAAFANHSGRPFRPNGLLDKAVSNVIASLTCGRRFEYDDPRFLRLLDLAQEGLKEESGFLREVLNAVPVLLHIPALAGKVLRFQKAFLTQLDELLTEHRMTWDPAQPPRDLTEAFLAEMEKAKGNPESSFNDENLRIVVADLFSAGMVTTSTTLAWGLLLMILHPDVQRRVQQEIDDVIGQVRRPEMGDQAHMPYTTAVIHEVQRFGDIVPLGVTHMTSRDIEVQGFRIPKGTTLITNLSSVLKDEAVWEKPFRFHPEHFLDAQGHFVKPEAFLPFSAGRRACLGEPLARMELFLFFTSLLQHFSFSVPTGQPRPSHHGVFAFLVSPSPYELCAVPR
# T2 sequence (P08684 whole entry): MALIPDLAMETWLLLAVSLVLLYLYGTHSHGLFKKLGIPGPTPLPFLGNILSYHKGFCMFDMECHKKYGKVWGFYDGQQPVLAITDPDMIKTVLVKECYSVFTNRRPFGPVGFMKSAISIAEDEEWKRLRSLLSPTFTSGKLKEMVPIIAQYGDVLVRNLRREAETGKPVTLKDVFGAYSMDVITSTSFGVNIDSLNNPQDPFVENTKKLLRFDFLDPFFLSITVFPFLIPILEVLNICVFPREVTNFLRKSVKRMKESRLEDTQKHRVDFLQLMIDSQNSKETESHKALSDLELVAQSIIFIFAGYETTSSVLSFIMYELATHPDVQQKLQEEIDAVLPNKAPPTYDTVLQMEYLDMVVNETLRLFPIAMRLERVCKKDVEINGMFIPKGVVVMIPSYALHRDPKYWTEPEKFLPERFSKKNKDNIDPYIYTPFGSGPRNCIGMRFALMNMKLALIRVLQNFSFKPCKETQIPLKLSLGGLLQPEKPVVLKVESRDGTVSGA
# TGFβR2, sequence (P37173 23-567): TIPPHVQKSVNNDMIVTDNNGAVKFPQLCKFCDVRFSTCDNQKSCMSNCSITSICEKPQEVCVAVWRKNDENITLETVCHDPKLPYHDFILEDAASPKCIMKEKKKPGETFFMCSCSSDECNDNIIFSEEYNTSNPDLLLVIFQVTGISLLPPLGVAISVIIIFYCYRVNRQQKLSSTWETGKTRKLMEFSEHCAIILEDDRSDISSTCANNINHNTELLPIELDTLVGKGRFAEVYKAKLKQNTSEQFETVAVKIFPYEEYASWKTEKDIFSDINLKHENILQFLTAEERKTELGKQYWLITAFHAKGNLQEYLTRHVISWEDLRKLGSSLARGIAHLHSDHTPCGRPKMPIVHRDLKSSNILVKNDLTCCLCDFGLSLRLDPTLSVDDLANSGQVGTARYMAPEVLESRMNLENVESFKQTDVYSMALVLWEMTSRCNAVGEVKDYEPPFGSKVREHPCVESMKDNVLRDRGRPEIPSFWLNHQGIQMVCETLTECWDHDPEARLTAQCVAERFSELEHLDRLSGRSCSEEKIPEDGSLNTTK
SMILES,IC50 (CYP2D6) [µM],IC50 (CYP3A4) [µM],F [1],"T1/2 ([1]; PO, 10 mg/kg, whole blood) [min]",IC50 (TGFβR2) [nM],"AUC(0-t) [1, 3] [ng·h/mL]","clearance [1, 3] [mL/min/kg]","Cmax [1, 4] [ng/mL]","AUC(0-t) [1, 5] [ng·h/mL]","half-life [1, 5] [min]","Cmax [1, 6] [ng/mL]",other results
"Cc1cccc(-n2nc3c(c2-c2ccn4nccc4c2)CCC3)n1 [Example 4, 5-[2-(6-methylpyridin-2-yl)-2,4,5,6-tetrahydrocyclopenteno [c]pyrazol-3-yl]pyrazolo[1,5-a]pyridine]",> 10,> 10,–,–,–,–,–,–,–,–,–,–
"Cc1cccc(-n2nc3c(c2-c2ccn4ncc(C(N)=O)c4c2)CCC3)n1 [Example 6, 5-[2-(6-methylpyridin-2-yl)-2,4,5,6-tetrahydrocyclopenteno[c]pyrazol-3-yl]pyrazolo[1,5-a]pyridine-3-carboxamide]",–,–,61.4±9.5%,27.6 ± 11.4,–,–,–,–,–,–,–,"IC50 (CYP2D6; 30 min): > 10 µM; IC50 (CYP3A4; 30 min): > 10 µM; AUClast ([1]; IV, 1 mg/kg, whole blood): 578 ng·h/mL and 578 ± 4 ng·h/mL; Cl ([1]; IV, 1 mg/kg, whole blood): 28.4 mL/min/kg and 28.4 ± 0.3 mL/min/kg; Cmax ([1]; IV, 1 mg/kg, whole blood): 1163 ng/mL and 1163 ± 58 ng/mL; F ([1]; listed as Example VI): 61.4%; AUClast ([1]; PO, 10 mg/kg, whole blood): 3586 ± 563 ng·h/mL; Cmax ([1]; PO, 10 mg/kg, whole blood): 7440 ± 226 ng/mL; AUClast [1, 2]: 3586 ng·h/mL; Cmax [1, 2]: 7440 ng/mL; T1/2 [1, 2]: 27.6 min"
"CNc1cc(-c2ccn3ncc(C(N)=O)c3c2)n(-c2cccc(C)n2)n1 [Example 8, 5-(3-(methylamino)-1-(6-methylpyridin-2-yl)-1H-pyrazol-5-yl)pyrazolo[1,5-a]pyridine-3-carboxamide]",> 10,> 10,98.1% and 98.1±15.0%,108 ± 21,> 1000,458,35,917,4360,108,6270,–
"Cc1cccc(-n2nc(NC(C)c3ccc(F)cc3)cc2-c2ccn3ncc(C(N)=O)c3c2)n1 (stereo not shown) [Example 10, 5-(3-(1-(4-fluorophenyl)ethylamino)-1-(6-methylpyridin-2-yl)-1H-pyrazol-5-yl)pyridino[1,5-a]pyridine-3-carboxamide]",> 10,> 10,–,–,> 1000,–,–,–,–,–,–,–
"Cc1cccc(-n2nc(NCc3ccc(F)cc3)cc2-c2ccn3ncc(C(N)=O)c3c2)n1 [Example 11, 5-(3-(4-fluorobenzylamino)-1-(6-methylpyridin-2-yl)-1H-pyrazol-5-yl)pyrazolo[1,5-a]pyridine-3-carboxamide]",> 10,> 10,–,–,593 ± 129,–,–,–,–,–,–,–
"Cc1cccc(-n2nccc2-c2ccn3ncc(C(N)=O)c3c2)n1 [Example 12, 5-(1-(6-methylpyridin-2-yl)-1H-pyrazol-5-yl)pyrazolo[1,5-a]pyridine-3-carboxamide]",> 10,> 10,52.1% and 52.1±2.6%,31.2 ± 10.8,> 1000,572,29.3,862,3040,31.2,5920,–
